Data taken from publication PMC4448990 (Pharmacology Research & Perspectives, 2015).
Where two headings read alike, the source gives them in different places. Marks after values point to notes of the source that are not given here.

What was measured:
[1] = molecular target: T1, human GlyRα3 glycine receptors (Homo sapiens, UniProt O75311); assay: submaximal glycine currents in CHO cells; format: cell-based
T1 sequence (O75311 34-464): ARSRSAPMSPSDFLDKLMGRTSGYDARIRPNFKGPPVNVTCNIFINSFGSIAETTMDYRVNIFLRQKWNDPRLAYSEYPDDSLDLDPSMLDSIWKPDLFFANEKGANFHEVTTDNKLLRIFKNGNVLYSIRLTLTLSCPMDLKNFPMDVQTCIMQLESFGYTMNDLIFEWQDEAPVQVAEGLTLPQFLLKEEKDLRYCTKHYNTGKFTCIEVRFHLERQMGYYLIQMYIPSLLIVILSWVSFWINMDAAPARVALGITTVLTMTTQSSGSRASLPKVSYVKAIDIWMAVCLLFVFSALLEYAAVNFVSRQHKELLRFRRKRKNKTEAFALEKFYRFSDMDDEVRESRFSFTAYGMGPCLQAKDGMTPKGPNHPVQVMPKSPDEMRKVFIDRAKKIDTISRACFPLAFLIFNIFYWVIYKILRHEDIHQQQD

hCav2.1 calcium channels = hCav2.1 calcium channels (Homo sapiens, UniProt O00555); assay: whole-cell patch clamp, hCav2.1 in CHO cells; format: cell-based; conditions: IC50, hCav2.1 calcium peak currents, 0.3–1000 μmol/L, holding potential −80 mV
[2] = test system: sodium channels endogenously expressed in N1E-115 mouse neuroblastoma cells; conditions: 250 μmol/L; ref Hebeisen et al. [2014]; cited from earlier work
[3] = molecular target: human α1β2γ2 GABAA receptors (Homo sapiens, UniProt P14867+P18507+P47870); assay: submaximal GABA currents in Ltk cells; format: cell-based
Sequence of human α1β2γ2 GABAA receptors (P14867 28-456): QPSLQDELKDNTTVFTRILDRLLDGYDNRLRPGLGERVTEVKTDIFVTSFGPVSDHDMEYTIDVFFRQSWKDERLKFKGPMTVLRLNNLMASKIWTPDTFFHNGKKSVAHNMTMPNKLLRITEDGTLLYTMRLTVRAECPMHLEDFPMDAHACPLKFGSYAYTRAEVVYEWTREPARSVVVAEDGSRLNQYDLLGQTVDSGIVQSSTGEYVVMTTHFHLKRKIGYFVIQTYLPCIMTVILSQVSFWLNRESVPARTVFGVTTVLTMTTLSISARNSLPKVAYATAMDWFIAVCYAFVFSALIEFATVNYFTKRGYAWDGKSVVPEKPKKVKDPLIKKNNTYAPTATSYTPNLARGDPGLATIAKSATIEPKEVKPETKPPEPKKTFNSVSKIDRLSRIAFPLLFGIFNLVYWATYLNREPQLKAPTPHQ
Sequence of human α1β2γ2 GABAA receptors (P47870 25-512 limits assumed): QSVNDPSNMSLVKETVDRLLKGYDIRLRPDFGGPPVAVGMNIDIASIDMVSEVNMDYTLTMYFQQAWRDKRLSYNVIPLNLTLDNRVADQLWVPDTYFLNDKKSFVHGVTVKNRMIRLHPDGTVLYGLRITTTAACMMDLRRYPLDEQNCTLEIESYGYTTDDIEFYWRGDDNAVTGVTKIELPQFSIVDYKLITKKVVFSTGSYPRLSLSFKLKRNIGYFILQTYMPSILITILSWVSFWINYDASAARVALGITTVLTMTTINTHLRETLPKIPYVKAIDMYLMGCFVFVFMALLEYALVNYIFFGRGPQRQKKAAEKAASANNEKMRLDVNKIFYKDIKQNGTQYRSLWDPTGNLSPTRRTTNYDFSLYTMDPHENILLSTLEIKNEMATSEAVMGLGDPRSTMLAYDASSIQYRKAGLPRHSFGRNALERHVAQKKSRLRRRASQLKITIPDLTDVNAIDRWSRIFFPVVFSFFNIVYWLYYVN
Sequence of human α1β2γ2 GABAA receptors (P18507 40-475): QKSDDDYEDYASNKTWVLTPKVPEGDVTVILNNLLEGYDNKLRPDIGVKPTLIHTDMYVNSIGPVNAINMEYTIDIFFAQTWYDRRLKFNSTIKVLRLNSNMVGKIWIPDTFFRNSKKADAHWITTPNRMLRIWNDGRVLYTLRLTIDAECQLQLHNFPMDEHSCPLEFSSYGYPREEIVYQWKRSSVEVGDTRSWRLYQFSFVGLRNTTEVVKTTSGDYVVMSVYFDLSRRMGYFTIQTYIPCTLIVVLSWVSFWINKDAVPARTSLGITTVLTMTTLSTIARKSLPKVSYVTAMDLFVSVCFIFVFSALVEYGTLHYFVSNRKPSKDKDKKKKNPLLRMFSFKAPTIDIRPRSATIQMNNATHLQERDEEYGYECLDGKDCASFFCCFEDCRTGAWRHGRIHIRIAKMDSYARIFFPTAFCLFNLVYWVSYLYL

kindling epileptogenesis = assay: bilateral corneal kindling; format: in vivo, mouse; conditions: Table 5 summary; values are ED50 (mg/kg)
[4] = molecular target: human α2β2γ2 GABAA receptors (Homo sapiens, UniProt P18507+P47869+P47870); assay: submaximal GABA currents in Ltk cells; format: cell-based
Sequence of human α2β2γ2 GABAA receptors (P47869 29-451): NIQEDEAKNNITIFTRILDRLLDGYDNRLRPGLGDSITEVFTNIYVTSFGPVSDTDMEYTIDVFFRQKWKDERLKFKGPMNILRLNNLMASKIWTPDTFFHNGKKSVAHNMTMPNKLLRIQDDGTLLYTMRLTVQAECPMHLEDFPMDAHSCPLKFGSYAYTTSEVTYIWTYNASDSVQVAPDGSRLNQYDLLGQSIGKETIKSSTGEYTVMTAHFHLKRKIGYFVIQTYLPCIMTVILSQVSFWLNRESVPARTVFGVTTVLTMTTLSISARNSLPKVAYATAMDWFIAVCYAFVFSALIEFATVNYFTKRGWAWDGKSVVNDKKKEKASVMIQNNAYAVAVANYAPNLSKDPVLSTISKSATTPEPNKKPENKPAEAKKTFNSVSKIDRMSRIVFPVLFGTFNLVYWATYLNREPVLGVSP
Sequence of human α2β2γ2 GABAA receptors (P47870 25-512 limits assumed): as the sequence (P47870 25-512 limits assumed) above
Sequence of human α2β2γ2 GABAA receptors (P18507 40-475): as the sequence (P18507 40-475) above

[5] = molecular target: human GRIN1/GRIN2B NMDA receptor (Homo sapiens, UniProt Q05586+Q13224); assay: submaximal NMDA-receptor-mediated currents in HEK cells; format: cell-based
[6] = molecular target: hKv7.2 potassium channels (Homo sapiens, UniProt O43526); assay: whole-cell patch clamp, hKv7.2 in CHO cells; format: cell-based
[7] = molecular target: human α5β2γ2 GABAA receptors (Homo sapiens, UniProt P18507+P31644+P47870); assay: submaximal GABA currents in Ltk cells; format: cell-based
Sequence of human α5β2γ2 GABAA receptors (P31644 32-462): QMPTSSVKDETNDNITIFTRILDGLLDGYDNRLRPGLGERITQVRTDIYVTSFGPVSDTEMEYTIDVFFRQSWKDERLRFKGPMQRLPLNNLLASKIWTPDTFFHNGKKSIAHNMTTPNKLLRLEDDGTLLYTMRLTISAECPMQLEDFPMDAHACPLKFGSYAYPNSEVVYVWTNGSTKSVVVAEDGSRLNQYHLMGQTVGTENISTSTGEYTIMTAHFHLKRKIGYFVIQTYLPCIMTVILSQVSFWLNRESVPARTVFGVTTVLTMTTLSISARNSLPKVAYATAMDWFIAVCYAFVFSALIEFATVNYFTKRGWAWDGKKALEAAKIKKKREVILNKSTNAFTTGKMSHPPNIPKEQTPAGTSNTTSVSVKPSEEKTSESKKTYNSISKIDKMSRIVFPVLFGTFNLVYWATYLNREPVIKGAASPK
Sequence of human α5β2γ2 GABAA receptors (P47870 25-512 limits assumed): as the sequence (P47870 25-512 limits assumed) above
Sequence of human α5β2γ2 GABAA receptors (P18507 40-475): as the sequence (P18507 40-475) above

human GRIA1 receptor = human GRIA1 receptor (Homo sapiens, UniProt P42261); assay: AMPA-receptor-mediated currents in CHO cells; format: cell-based
[8] = test system: transient Na+ current (INaT); conditions: ref Döser et al. [2013b], [2015]; cited from earlier work
[9] = molecular target: human α3β2γ2 GABAA receptors (Homo sapiens, UniProt P18507+P34903+P47870); assay: submaximal GABA currents in Ltk cells; format: cell-based
Sequence of human α3β2γ2 GABAA receptors (P34903 29-492): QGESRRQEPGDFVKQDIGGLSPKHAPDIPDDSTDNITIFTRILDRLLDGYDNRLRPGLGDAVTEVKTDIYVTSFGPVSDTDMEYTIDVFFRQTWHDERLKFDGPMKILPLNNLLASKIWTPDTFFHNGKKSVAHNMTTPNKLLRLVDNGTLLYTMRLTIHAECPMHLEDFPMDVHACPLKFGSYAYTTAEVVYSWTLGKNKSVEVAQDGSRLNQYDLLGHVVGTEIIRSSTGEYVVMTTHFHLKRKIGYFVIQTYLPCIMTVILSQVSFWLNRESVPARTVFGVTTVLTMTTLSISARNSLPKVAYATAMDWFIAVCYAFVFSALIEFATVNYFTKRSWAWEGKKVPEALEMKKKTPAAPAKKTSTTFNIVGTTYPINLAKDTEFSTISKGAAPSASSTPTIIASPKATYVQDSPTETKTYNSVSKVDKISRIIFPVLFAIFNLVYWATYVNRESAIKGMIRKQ
Sequence of human α3β2γ2 GABAA receptors (P47870 25-512 limits assumed): as the sequence (P47870 25-512 limits assumed) above
Sequence of human α3β2γ2 GABAA receptors (P18507 40-475): as the sequence (P18507 40-475) above

Racine stage 5 seizures = assay: proconvulsant effects; format: in vivo
[10] = molecular target: human Nav1.3 sodium channels (Homo sapiens, UniProt Q9NY46); assay: whole-cell patch clamp, Nav1.3 in CHO-K1 cells; format: cell-based; conditions: 250 μmol/L; for Fast inactivation V0.5 / Slow inactivation V0.5: n = 3–6; for time constant for entering the slow inactivated state: control 20.29 sec
Sequence of human Nav1.3 sodium channels (Q9NY46 whole entry): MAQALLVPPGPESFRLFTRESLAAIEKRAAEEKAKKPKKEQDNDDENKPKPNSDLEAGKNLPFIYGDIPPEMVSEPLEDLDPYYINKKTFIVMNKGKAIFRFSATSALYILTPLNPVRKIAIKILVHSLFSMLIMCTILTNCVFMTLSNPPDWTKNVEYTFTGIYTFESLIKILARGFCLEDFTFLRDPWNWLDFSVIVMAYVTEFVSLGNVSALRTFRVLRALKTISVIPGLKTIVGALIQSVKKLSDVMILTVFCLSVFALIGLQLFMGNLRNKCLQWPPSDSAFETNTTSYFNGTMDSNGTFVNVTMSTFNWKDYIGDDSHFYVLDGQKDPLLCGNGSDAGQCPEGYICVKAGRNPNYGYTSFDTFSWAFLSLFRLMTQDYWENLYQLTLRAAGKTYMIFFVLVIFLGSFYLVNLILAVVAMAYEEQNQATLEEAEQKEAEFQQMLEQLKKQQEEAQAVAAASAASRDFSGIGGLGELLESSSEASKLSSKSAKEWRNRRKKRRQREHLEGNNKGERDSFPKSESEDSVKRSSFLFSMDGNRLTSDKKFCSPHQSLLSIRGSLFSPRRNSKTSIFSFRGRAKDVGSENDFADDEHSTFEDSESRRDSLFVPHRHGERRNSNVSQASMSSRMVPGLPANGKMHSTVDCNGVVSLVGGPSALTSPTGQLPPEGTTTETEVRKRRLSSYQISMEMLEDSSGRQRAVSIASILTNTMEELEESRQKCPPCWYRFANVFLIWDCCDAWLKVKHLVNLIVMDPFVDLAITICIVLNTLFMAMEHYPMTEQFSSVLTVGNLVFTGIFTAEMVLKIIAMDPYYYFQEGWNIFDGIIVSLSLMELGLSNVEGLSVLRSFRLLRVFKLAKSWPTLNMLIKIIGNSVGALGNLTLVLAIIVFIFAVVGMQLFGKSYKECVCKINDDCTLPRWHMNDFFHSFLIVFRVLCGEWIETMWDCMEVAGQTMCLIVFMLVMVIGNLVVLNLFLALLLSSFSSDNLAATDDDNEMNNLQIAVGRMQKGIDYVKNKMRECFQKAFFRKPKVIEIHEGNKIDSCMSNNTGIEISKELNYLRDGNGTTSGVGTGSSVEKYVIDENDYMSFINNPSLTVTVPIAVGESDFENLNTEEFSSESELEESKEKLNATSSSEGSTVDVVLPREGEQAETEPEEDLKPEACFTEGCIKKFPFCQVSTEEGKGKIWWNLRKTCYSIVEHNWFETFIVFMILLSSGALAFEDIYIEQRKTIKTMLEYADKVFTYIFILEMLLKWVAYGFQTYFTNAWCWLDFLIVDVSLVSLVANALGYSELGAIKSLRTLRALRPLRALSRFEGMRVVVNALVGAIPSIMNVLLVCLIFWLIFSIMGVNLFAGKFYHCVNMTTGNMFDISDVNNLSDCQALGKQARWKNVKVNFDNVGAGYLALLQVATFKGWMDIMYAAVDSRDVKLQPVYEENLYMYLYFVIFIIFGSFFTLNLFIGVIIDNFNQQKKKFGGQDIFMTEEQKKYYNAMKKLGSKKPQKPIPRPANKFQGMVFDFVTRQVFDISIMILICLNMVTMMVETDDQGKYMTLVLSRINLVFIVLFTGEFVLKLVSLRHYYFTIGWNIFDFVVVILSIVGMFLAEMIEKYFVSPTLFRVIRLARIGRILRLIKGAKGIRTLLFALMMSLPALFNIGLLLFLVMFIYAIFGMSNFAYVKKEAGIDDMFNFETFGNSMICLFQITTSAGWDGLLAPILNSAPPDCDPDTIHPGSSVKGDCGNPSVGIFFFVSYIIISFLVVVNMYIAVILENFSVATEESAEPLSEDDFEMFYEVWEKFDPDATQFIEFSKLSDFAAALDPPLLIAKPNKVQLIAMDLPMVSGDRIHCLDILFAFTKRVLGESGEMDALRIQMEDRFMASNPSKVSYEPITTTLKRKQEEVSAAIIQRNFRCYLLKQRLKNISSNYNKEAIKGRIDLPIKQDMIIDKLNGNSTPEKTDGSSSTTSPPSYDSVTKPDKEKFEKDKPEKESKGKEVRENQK

MES-induced seizures = conditions: mouse, ESL 50 mg/kg p.o.; ref Pires et al. [2011]; cited from earlier work
[11] = test system: latrunculin A-induced seizures; conditions: ESL 100 mg/kg oral, ref Sierra-Paredes et al. [2011], 2014, cited from earlier work
[12] = human plasma and CSF pharmacokinetics; format: in vivo; conditions: LCM 600 mg twice daily, protein binding ∼15%
[13] = ref Doty et al. [2007]; cited from earlier work
[14] = ref Nunes et al. [2013], cited from earlier work

NC(=O)N1c2ccccc2C=Cc2ccccc21 [CBZ, carbamazepine]
IC50 [1]: 441 µM
IC50 (hCav2.1 calcium channels): 452 µM
recovery of fast inactivated channels [2]: required longer pulses to recover
GABA inward current stimulation, α1β2γ2, Mean ± SEM ([3]; 50 μmol/L): 104.3 ± 5.0
GABA inward current stimulation, α1β2γ2, Mean ± SEM ([3]; 100 μmol/L): 117.4 ± 4.9
GABA inward current stimulation, α1β2γ2, Mean ± SEM ([3]; 250 μmol/L): 115.7 ± 5.3
GABA inward current stimulation, α1β2γ2, Mean ± SEM ([3]; 500 μmol/L): 132.4 ± 5.3
GABA inward current stimulation, α1β2γ2, Mean ± SEM ([3]; 1000 μmol/L): 150.3 ± 15.5
increase of submaximal α1β2γ2 GABA currents ([3]; 1000 μmol/L): 50%
Corneal kindling (antiepileptogenic models) (kindling epileptogenesis): 140 mg/kg
GABA inward current stimulation, α2β2γ2, Mean ± SEM ([4]; 50 μmol/L): 97.9 ± 3.3
GABA inward current stimulation, α2β2γ2, Mean ± SEM ([4]; 100 μmol/L): 111.4 ± 2.7
GABA inward current stimulation, α2β2γ2, Mean ± SEM ([4]; 250 μmol/L): 109.0 ± 7.6
GABA inward current stimulation, α2β2γ2, Mean ± SEM ([4]; 500 μmol/L): 103.6 ± 7.6
GABA inward current stimulation, α2β2γ2, Mean ± SEM ([4]; 1000 μmol/L): 104.2 ± 2.7
IC50 [5]: 214 µM
IC50 [6]: 572 µM
GABA inward current stimulation, α5β2γ2, Mean ± SEM ([7]; 50 μmol/L): 103.8 ± 1.5
GABA inward current stimulation, α5β2γ2, Mean ± SEM ([7]; 100 μmol/L): 103.8 ± 4.5
GABA inward current stimulation, α5β2γ2, Mean ± SEM ([7]; 250 μmol/L): 93.6 ± 4.3
GABA inward current stimulation, α5β2γ2, Mean ± SEM ([7]; 500 μmol/L): 80.7 ± 5.9
GABA inward current stimulation, α5β2γ2, Mean ± SEM ([7]; 1000 μmol/L): 63.0 ± 4.5
IC50, AMPA currents (human GRIA1 receptor; CHO cells, human GRIA1): neither eslicarbazepine nor CBZ significantly changed AMPA currents
inhibition of firing of DGCs, control versus pilocarpine-treated rats [8]: significantly reduced in chronic experimental epilepsy
GABA inward current stimulation, α3β2γ2, Mean ± SEM ([9]; 50 μmol/L): 93.3 ± 4.1
GABA inward current stimulation, α3β2γ2, Mean ± SEM ([9]; 100 μmol/L): 112.8 ± 5.4
GABA inward current stimulation, α3β2γ2, Mean ± SEM ([9]; 250 μmol/L): 131.1 ± 9.4
GABA inward current stimulation, α3β2γ2, Mean ± SEM ([9]; 500 μmol/L): 120.3 ± 11.8
GABA inward current stimulation, α3β2γ2, Mean ± SEM ([9]; 1000 μmol/L): 166.7 ± 21.0
increase of submaximal α3β2γ2 GABA currents ([9]; 1000 μmol/L): 66%
Racine stage 5 seizures (proconvulsant effects) (Racine stage 5 seizures; at 45 mg/kg): 80% ^**
Fast inactivation V0.5 ([10]; mean ± SEM): −72.33 ± 5.04 mV
Slow inactivation V0.5 ([10]; mean ± SEM): −21.56 ± 3.23 mV
Fast inactivation, individual shifts ([10]; versus control (bath), mean ± SEM): −14.35 mV
time constant for entering the slow inactivated state [10]: not affected

N[C@H](CCCP(=O)(O)O)C(=O)O [D-AP5, D-(−)-2-amino-5-phosphonopentanoic]
IC50 ([5]; read-out: IC50, NMDA receptor-mediated currents, submaximal currents, HEK cells GRIN1/GRIN2B): 7 µM

CC(=O)O[C@H]1Cc2ccccc2N(C(N)=O)c2ccccc21 [ESL, (S)-10-acetoxy-10,11-dihydro-5H-dibenz/b,f/azepine-5-carboxamide]
protection against MES-induced seizures (MES-induced seizures): 97%
Corneal kindling (antiepileptogenic models) (kindling epileptogenesis): 30 mg/kg
hippocampal extracellular glutamate levels ([11]; microdialysate): significantly reduced glutamate levels
acute and chronic latrunculin A-induced seizures and EEG chronic signs of paroxysmal activity ([11]; Swiss mice, previous to latrunculin A microperfusion): completely prevented
Racine stage 5 seizures (proconvulsant effects) (Racine stage 5 seizures; at 240 mg/kg): 22% ^*

COC[C@@H](NC(C)=O)C(=O)NCc1ccccc1 [LCM, lacosamide]
LCM-free drug, peak plasma [12]: 49 µmol/L
LCM protein binding [13]: ~15%
recovery of fast inactivated channels [2]: recovered similar to control conditions
Fast inactivation V0.5 ([10]; mean ± SEM): −53.54 ± 3.95 mV
Slow inactivation V0.5 ([10]; mean ± SEM): −37.04 ± 2.72 mV
time constant for entering the slow inactivated state [10]: 10.91 s

NS(=O)(=O)c1cccc2c1c([N+](=O)[O-])cc1nc(O)c(O)nc12 [NBQX, 2,3-Dioxo-6-nitro-1,2,3,4-tetrahydrobenzo[f]quinoxaline-7-sulfonamide]
IC50 (human GRIA1 receptor): 19 µM

NC(=O)N1c2ccccc2CC(=O)c2ccccc21 [OXC, oxcarbazepine]
recovery of fast inactivated channels [2]: required longer pulses to recover
CSF Cmax of nonmetabolized OXC ([14]; ESL 1200 mg QD): 380 nM
CSF Cmax of nonmetabolized OXC ([14]; OXC 600 mg BID): 1820 nM
Fast inactivation V0.5 ([10]; mean ± SEM): −55.95 ± 2.91 mV
Slow inactivation V0.5 ([10]; mean ± SEM): −19.47 ± 4.55 mV
time constant for entering the slow inactivated state [10]: not affected

O=C1C[C@@H]2OCC=C3CN4CC[C@]56c7ccccc7N1[C@H]5[C@H]2[C@H]3C[C@H]46 [Strychnine]
IC50 [1]: 0.052 µM

Cc1ncc2n1-c1ccc(Cl)cc1C(c1ccccc1F)=NC2 [midazolam]
increase of submaximal α1β2γ2 GABA currents ([3]; 3 μmol/L): ~80%
